In patent publication US6423335B1, “Modified milk powder composition” (priority 1999, dated 2002):

Legend:
Assay type in all cases: in vivo, rats (the Donryu strain)
[1] = Low protein diet feeding in rats: body weight, weight of tissues, BUN, blood profile (Example 1); settings: for efficiency of protein utilization of feed / feed efficiency: versus 3% protein diet group; for level of platelets: versus suppression in 3% protein diet group
Source text: (§1) Four-week-age male rats (the Donryu strain) were fed 20% protein diet for one week. Then, glutamine (Gln) and glutamic acid (Glu) each were mixed into 3% protein diet at the level of 5% (w/w) and offered to the rats for three weeks. Also, a 20% protein diet group and a 3% protein diet group were set as controls. Upon each rat, body weight, weight of tissues, blood urea nitrogen (BUN), the level of leukocytes, the level of erythrocytes, hematocrit, the level of platelets, and production of TNF-α by peritoneal macrophage as an index of immune response were determined.

peritoneal macrophage [2] = test: Production of TNF-α by peritoneal macrophage as an index of immune response (Example 2); settings: two weeks
Source text: (§2) Then, using commercial modified milk powder (milk serum protein, soybean oil, lactose, and various vitamins and minerals were mixed; level of proteins was from 12 to 13% by weight) as a control, glutamine ([…] became 2, 5, 8, or 40%), and each diet was offered (free ingestion) for two weeks. Upon each rat, body weight, weight of tissues, blood urea nitrogen (BUN), the level of leukocytes, the level of erythrocytes, hematocrit, the level of platelets, and production of TNF-α by peritoneal macrophage as an index of immune response were measured.

peritoneal macrophage [3] = test: Production of TNF-α by peritoneal macrophage as an index of immune response (Example 1); settings: 5% (w/w) in 3% protein diet, three weeks; versus suppression in 3% protein diet group
Source text: as §1

[4] = Commercial modified milk powder feeding in rats: body weight, weight of tissues, BUN, blood profile (Example 2); settings: two weeks
Source text: as §2

[5] = 5% (w/w) in 3% protein diet, three weeks
[6] = male rats, 5% (w/w) in 3% protein diet, three weeks
[7] = 0.65% Gln in modified milk powder
[8] = 1.5% Gln group, modified milk powder
[9] = 0.3% Gln in modified milk powder

NC(=O)CC[C@H](N)C(=O)O [Gln, glutamine]
remarkable decrease of body weight on low protein diet ([1]; 5% (w/w) in 3% protein diet, three weeks, compared with 3% protein diet group): this phenomenon was observed | efficiency of protein utilization of feed [1, 5]: higher than those in the 3% protein diet group | feed efficiency [1, 5]: higher than those in the 3% protein diet group | level of platelets [1, 5]: improvement was observed | Body weight at the end of experiment [1, 6]: 200.2 ± 3.1 | Blood urea nitrogen ([1]; rat, in vivo): 18.9 ± 2.1 mg/dL | production of TNF-α by peritoneal macrophage versus control group (peritoneal macrophage [2]; [7]): higher than that at the control group | production of TNF-α by peritoneal macrophage as compared with the control group (peritoneal macrophage [2]; [8]): there were observed differences | production of TNF-α by peritoneal macrophage (peritoneal macrophage [3]): improvement was observed | Blood urea nitrogen [4, 9]: 20.5 mg/dL | Body weight at the end of experiment [4, 9]: 233.1 | body weight and any of the other indexes versus control group (Gln 0%) [4, 9]: no difference | Blood urea nitrogen [4, 7]: 22.1 mg/dL | Body weight at the end of experiment [4, 7]: 238.2 | body weight versus control group [4, 7]: a slight difference | Blood urea nitrogen ([4]; 1% Gln in modified milk powder): 23.4 mg/dL | Body weight at the end of experiment ([4]; 1% Gln in modified milk powder): 241.7 | body weight as compared with the control group [4, 8]: there were observed differences | level of platelets as compared with the control group [4, 8]: there were observed differences | Blood urea nitrogen ([4]; 5% Gln in modified milk powder): 24.1 mg/dL | Body weight at the end of experiment ([4]; 5% Gln in modified milk powder): 245.8

N[C@@H](CCC(=O)O)C(=O)O [Glu, glutamic acid]
efficiency of protein utilization of feed [1, 5]: this beneficial phenomenon was not observed | feed efficiency [1, 5]: this beneficial phenomenon was not observed | level of platelets [1, 5]: no improvement | Blood urea nitrogen [1, 6]: 18.8 ± 2.9 mg/dL | Body weight at the end of experiment [1, 6]: 180.5 ± 3.8 | production of TNF-α by peritoneal macrophage (peritoneal macrophage [3]): no improvement
